Experimental data from patent publication US20240075050A1, “Methods and Compositions for Treating Leucine Rich Repeat Kinase 2 (LRRK2)-Associated Disorder or Condition” (University of Connecticut, priority 2022, published 2024).

Experiments:
[1] = test system: LRRK2; assay: LRRK2 levels in mouse primary neurons, microglia, astrocytes, Western blot; format: cell-based; settings: 1 mM, 48 hours
Procedure: FIGS. 2A-2T depicts that AICAr, the precursor of ATIC substrate, regulates LRRK2 expression levels and neuronal toxicity. FIGS. 2A and 2B depict the overexpressed LRRK2 levels in HEK 293T cells upon AICAr treatment. HEK293 cells were transfected with MYC-LRRK2 and treated with or without 1 mM AICAr for 48 hours. LRRK2 levels were analyzed by Western blot. FIGS. 2C and 2D depict the LRRK2 expression levels in SH-SY5Y cells upon AICAr treatment. Human neuroblastoma SH-SY5Y cells were treated with or without 1 mM AICAr for 48 hours. LRRK2 expression levels were analyzed by Western blot. FIGS. 2E and 2F depict the overexpressed (3-glucocerebrosidase (GCase) levels upon AICAr treatment. HEK 293T cells were transfected with V5-GCase and treated with or without 1 mM AICAr for 48 hours. GCase levels were analyzed by Western blot. FIGS. 2G-2N depict the LRRK2 expression levels in primary neurons (FIG. 2G and FIG. 2H), microglia (FIG. 2I and FIG. 2J), astrocytes (FIG. 2K and FIG. 2L) and human fibroblasts (FIG. 2M and FIG. 2N) upon AICAr treatment. Mouse primary cortical neurons, microglia, astrocytes or human fibroblasts from a health control were treated with or without 1 mM AICAr for 48 hours. LRRK2 expression levels were analyzed by Western blot. FIGS. 2O and 2P depict the overexpressed LRRK2 WT and pathogenic mutant levels upon AICAr treatment. […] LRRK2 expression levels were analyzed by Western blot. […] One day after injection, striatal tissues near the injection sites were collected and LRRK2 expression levels were analyzed by Western blot. Images were quantified by ImageJ software. […] FIG. 2T depicts the quantification of neuronal viability. Bars indicate the viability (n>100) for each transfection condition expressed as a percent of control neurons (eGFP with pcDNA3.1 empty vector). Data represent the mean±SEM from three independent experiments with n>100 cells quantified in each experiment. *p<0.05, ***p<0.001, ****p<0.0001 by one-way ANOVA followed by a Tukey's post hoc test.

[2] = test system: LRRK2 mRNA; assay: LRRK2 mRNA levels by real-time PCR in SH-SY5Y cells; format: cell-based, human; settings: 24 hours
Procedure: Real-Time PCR (qPCR). SH-SY5Y WT or AUF1-KO cells were treated with or without 2 mM AICAr for 24 hours, and total RNA was extracted from 3×10^5 cells of each treatment using TRIzol™ Reagent (Invitrogen) as per the manufacturer's introductions. Real-Time PCR (qPCR) assay was performed using GoTaq® 2-Step RT-PCR System (Promega) as per the manufacturer's introductions. Briefly, total cDNA was reversely transcribed from RNA pools (1.5 μg RNA in a 10 μl reaction mixture) using random primers. The qPCR reaction was run in CFX96 qPCR detection system (Bio-Rad) with 3 μl cDNA (1:20 dilution) in a 10 μl reaction mixture (Table 3), and set at 95° C. for 2 minutes followed by 40 amplification cycles of 95° C. for 15 seconds, 60° C. for 1 min with a melting curve, 95° C. for 15 seconds, 60° C. for 1 min, a ramp from 60° C. to 95° C. at an 1% rate, and 95° C. for 15 seconds. Melt curves were monitored to assess qPCR amplicons, and critical threshold (Ct) values were collected with an enclosed software. Relative gene expression was analyzed by normalization against Ct values of f-ACTIN (housekeeping gene) and then determined by comparison with expression levels of control sample using the relative expression index (2-ΔΔCt) method.

[3] = test system: DCP2; assay: DCP2 expression levels in SH-SY5Y cells, Western blot; format: cell-based, human; settings: 1 mM, 48 hours
Procedure: FIGS. 6A-6E depict that the decapping enzyme complex DCP1/2 is involved in LRRK2 mRNA decay. FIGS. 6A and 6B depict the DCP1A and DCP2 expression levels upon AICAr treatment. SH-SY5Y cells were treated with or without 1 mM AICAr for 48 hours. DCP1A and DCP2 expression levels were analyzed by Western blot. Images were quantified by ImageJ software. Data are mean±SEM, n=3 independent experiments. **p<0.01 by Student's t tests. FIGS. 6C and 6D depict the LRRK2 expression levels upon DCP1A or DCP2 overexpression. SH-SY5Y cells were transduced with lentiviruses carrying Flag-DCP1A or Flag-DCP2 for 48 hours. LRRK2 expression levels were analyzed by Western blot. Images were quantified by ImageJ software. Data are mean±SEM, n=3 independent experiments. *p<0.05 by Student's t tests. FIG. 6E depict LRRK2 mRNA decapping by DCP1A and DCP2. Recombinant DCP1A and DCP2 proteins were purified from HEK 293T cells and incubated with [α-32P]cap-labeled LRRK2 RNA. LRRK2 mRNA decapping was analyzed by one-dimensional thin layer chromatography.

[4] = test system: LRRK2-G2019S transgenic flies; assay: LRRK2-induced DA neurodegeneration in LRRK2-G2019S transgenic Drosophila; format: in vivo; settings: 9-week-old flies, fly food with 1 mM AICAr from posteclosion
From the text: Administration of AICAr into LRRK2 Drosophila. Ddc-GAL4 and UAS-GFP fly lines were obtained from Bloomington Stock Center. pUAST-attB-LRRK2 WT and G2019S were microinjected into Drosophila embryos (BestGene Inc.)^30. The resulting transgenic flies were crossed with Ddc-GAL4>UAS-GFP, which induces the co-expression of GFP, […] LRRK2 in dopamine and serotonin neurons. To study the effects of AICAr on LRRK2-induced dopaminergic neurodegeneration, flies were fed with regular fly food supplemented with 1 mM AICAr immediately at the posteclosion until 9-week-old.

Compound: NC(=O)c1ncn([C@@H]2O[C@H](CO)[C@@H](O)[C@H]2O)c1N [AICAr, 5-aminoimidazole-4-carboxamide riboside]
- LRRK2 levels in astrocytes ([1]; mouse primary astrocytes): remained unchanged
- LRRK2 levels in neurons ([1]; mouse primary cortical neurons): significantly decrease
- LRRK2 levels in microglia ([1]; mouse primary microglia): significantly decrease
- LRRK2 mRNA level in AUF1-KO cells ([2]; SH-SY5Y AUF1-KO cells): minimal effect
- LRRK2 mRNA levels ([2]; SH-SY5Y WT, 2 mM, real-time PCR): significantly decreased
- endogenous levels of DCP2 [3]: significantly increased
- LRRK2-GS induced DA neurodegeneration (DA neuron numbers) [4]: rescued
